Data: paper PMC4100786 (Biochemistry, 2014)

Biological target: ISWI (Xenopus laevis, UniProt Q9DF71)
Type: binding

Chain of ISWI (Q9DF71 1-1046): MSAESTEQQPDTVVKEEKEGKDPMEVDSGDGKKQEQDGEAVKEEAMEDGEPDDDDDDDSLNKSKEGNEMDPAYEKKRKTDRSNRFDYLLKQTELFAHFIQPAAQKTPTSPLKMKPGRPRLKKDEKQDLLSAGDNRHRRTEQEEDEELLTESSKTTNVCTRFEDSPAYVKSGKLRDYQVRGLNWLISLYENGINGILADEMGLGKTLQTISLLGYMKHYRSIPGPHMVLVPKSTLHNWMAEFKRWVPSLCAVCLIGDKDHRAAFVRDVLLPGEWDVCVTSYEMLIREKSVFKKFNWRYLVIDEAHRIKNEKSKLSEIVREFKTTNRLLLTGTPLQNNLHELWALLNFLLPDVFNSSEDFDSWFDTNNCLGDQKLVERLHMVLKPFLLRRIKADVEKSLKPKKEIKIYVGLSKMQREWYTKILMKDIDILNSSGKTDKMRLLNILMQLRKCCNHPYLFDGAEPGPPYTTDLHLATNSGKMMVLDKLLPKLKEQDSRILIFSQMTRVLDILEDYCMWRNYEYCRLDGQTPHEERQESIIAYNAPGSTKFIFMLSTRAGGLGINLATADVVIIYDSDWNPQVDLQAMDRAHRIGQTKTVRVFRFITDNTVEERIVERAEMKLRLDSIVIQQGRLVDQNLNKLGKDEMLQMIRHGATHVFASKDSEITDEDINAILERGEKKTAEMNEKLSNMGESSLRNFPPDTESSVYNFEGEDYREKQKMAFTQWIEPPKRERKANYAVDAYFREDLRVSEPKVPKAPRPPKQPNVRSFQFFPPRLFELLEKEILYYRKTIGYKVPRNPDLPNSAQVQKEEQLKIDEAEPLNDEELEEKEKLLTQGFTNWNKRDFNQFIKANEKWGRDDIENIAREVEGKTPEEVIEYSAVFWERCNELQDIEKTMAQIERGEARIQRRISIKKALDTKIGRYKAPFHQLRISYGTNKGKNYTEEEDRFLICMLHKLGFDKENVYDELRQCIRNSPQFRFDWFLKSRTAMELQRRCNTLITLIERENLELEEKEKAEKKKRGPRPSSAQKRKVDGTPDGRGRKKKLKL

SMILES: Nc1ncnc2c1ncn2[C@@H]1O[C@H](CO[P@](=O)(O)O[P@](=O)(O)O[P@@](=O)(O)S)[C@@H](O)[C@H]1O [ATP-γ-S]
- Kd: 140 ± 30 µM
